From ChEMBL document CHEMBL5137051 (Eur J Med Chem, 2022)

Columns and labels:
A549 = test: Antiproliferative activity against human A549 cells assessed as cell viability after 72 hrs by MTT assay; assay type: functional, cell-based; conditions: A549, 72 h
[1] = tested on: Epidermal growth factor receptor (Homo sapiens), P00533 [L858R,T790M,C797S]; conditions: dose 300.0 nM
NCI-H1975 = test: Antiproliferative activity against human H1975 cells assessed as cell viability after 72 hrs by MTT assay; assay type: functional, cell-based; conditions: NCI-H1975, 72 h
[2] = target: Epidermal growth factor receptor (Homo sapiens, UniProt P00533); test: Inhibition of wild type EGFR (unknown origin) by mobility shift assay
[3] = target: Epidermal growth factor receptor (Homo sapiens, UniProt P00533, C797S/L858R/T790M); test: Inhibition of EGFR L858R/T790M/C797S mutant (unknown origin) by mobility shift assay
[4] = target: Epidermal growth factor receptor (Homo sapiens, UniProt P00533, L858R/T790M); test: Inhibition of EGFR L858R/T790M mutant (unknown origin) by mobility shift assay
[5] = target: Hepatocyte growth factor receptor (Homo sapiens, UniProt P08581); test: Inhibition of c-Met (unknown origin) by mobility shift assay
Hepatocyte growth factor receptor, sequence (P08581 whole entry): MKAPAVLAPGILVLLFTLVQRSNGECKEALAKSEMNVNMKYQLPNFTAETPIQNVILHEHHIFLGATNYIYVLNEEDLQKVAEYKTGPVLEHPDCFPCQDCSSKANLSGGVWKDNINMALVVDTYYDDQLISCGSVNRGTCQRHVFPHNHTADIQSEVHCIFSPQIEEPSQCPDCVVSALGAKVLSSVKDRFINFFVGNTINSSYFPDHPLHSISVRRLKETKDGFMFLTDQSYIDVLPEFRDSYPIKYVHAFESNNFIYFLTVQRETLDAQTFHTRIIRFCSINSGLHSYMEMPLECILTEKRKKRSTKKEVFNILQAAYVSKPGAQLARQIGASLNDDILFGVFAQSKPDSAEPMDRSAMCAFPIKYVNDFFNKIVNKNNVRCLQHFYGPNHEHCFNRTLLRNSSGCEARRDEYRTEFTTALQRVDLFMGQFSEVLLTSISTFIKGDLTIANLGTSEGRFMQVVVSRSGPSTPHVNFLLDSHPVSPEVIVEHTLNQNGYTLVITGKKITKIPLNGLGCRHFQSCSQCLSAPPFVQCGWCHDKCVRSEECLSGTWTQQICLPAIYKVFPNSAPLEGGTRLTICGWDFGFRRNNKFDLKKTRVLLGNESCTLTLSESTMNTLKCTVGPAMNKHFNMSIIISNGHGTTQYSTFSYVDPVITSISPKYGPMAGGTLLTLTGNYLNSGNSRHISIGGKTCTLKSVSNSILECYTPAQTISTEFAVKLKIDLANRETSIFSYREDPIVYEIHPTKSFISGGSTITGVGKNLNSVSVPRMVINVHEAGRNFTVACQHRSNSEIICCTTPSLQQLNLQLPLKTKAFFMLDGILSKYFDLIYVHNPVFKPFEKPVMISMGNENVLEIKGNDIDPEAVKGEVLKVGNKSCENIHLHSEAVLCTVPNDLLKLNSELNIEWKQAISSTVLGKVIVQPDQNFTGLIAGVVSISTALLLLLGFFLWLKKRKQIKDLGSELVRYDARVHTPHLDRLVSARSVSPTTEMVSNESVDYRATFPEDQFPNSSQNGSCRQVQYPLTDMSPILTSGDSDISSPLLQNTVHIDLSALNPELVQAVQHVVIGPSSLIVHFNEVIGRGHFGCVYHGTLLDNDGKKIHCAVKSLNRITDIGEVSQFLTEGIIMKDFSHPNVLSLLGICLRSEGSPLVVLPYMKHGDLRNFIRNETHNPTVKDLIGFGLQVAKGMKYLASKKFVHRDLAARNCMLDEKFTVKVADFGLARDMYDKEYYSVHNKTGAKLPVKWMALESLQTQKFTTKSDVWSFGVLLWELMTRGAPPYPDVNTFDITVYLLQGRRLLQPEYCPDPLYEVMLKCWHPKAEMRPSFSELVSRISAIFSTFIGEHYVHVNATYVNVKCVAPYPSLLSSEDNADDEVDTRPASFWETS

Epidermal growth factor receptor (Homo sapiens, UniProt P00533), sequence (P00533 whole entry): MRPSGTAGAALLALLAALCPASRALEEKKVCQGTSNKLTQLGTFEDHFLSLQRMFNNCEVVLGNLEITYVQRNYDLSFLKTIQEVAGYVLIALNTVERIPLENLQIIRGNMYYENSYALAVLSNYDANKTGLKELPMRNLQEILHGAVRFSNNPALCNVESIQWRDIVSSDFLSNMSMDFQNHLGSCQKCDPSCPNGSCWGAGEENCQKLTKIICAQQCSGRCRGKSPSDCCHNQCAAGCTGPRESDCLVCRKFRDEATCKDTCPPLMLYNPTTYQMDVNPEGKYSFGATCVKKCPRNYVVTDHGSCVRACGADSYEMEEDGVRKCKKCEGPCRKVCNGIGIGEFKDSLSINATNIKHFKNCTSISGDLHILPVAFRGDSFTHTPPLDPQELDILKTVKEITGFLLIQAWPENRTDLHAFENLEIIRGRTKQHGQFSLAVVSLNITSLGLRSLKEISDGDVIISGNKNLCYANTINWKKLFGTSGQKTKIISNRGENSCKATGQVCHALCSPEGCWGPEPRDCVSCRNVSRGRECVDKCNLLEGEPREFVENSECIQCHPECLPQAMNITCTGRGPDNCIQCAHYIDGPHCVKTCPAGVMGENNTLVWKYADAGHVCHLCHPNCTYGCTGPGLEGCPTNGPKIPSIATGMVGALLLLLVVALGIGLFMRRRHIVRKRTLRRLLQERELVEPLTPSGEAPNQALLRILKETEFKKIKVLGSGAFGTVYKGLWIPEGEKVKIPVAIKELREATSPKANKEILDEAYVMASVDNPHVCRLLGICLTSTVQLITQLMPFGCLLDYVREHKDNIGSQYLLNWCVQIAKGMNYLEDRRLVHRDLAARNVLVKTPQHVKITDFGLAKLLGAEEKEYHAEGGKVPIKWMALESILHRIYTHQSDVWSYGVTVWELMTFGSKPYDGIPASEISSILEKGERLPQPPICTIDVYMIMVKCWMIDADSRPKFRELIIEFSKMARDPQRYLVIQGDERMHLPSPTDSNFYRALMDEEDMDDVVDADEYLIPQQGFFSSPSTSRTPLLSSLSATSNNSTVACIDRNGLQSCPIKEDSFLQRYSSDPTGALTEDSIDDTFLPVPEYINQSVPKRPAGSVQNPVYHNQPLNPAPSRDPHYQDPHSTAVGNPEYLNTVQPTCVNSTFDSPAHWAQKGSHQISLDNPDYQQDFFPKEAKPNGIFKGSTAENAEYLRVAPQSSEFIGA
Epidermal growth factor receptor (Homo sapiens, UniProt P00533, L858R/T790M), sequence (P00533 25-1210 T790M/L858R limits assumed): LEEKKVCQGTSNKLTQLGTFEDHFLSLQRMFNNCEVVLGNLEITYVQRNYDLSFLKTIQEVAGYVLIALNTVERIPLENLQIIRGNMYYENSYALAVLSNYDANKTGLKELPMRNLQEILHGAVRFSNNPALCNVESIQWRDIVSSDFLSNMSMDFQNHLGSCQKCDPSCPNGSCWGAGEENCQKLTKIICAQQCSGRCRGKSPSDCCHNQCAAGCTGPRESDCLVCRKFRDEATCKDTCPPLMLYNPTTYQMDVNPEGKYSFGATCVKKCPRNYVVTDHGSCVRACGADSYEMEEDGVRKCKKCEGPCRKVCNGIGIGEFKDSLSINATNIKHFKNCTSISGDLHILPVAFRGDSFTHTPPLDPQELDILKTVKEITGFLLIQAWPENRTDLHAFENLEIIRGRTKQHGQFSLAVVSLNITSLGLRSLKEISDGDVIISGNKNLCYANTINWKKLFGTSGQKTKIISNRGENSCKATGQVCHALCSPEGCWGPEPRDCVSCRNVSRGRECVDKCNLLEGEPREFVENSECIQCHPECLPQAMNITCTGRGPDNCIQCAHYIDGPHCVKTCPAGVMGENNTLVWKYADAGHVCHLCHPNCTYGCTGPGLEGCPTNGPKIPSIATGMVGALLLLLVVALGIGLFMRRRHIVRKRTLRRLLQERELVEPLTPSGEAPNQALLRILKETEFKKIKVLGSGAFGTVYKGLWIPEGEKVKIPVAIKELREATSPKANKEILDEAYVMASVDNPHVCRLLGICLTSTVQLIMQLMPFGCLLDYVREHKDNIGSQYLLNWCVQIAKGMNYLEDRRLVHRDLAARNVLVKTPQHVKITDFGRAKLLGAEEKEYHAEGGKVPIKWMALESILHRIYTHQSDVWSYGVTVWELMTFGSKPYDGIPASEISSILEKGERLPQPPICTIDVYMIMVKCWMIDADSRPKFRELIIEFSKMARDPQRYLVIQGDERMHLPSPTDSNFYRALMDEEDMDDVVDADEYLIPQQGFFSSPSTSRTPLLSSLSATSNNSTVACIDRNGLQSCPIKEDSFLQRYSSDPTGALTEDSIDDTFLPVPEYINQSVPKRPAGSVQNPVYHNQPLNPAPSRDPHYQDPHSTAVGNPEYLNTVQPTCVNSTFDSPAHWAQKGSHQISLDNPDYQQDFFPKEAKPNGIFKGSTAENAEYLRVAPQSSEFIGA
Epidermal growth factor receptor (Homo sapiens, UniProt P00533, C797S/L858R/T790M), sequence (P00533 25-1210 T790M/C797S/L858R limits assumed): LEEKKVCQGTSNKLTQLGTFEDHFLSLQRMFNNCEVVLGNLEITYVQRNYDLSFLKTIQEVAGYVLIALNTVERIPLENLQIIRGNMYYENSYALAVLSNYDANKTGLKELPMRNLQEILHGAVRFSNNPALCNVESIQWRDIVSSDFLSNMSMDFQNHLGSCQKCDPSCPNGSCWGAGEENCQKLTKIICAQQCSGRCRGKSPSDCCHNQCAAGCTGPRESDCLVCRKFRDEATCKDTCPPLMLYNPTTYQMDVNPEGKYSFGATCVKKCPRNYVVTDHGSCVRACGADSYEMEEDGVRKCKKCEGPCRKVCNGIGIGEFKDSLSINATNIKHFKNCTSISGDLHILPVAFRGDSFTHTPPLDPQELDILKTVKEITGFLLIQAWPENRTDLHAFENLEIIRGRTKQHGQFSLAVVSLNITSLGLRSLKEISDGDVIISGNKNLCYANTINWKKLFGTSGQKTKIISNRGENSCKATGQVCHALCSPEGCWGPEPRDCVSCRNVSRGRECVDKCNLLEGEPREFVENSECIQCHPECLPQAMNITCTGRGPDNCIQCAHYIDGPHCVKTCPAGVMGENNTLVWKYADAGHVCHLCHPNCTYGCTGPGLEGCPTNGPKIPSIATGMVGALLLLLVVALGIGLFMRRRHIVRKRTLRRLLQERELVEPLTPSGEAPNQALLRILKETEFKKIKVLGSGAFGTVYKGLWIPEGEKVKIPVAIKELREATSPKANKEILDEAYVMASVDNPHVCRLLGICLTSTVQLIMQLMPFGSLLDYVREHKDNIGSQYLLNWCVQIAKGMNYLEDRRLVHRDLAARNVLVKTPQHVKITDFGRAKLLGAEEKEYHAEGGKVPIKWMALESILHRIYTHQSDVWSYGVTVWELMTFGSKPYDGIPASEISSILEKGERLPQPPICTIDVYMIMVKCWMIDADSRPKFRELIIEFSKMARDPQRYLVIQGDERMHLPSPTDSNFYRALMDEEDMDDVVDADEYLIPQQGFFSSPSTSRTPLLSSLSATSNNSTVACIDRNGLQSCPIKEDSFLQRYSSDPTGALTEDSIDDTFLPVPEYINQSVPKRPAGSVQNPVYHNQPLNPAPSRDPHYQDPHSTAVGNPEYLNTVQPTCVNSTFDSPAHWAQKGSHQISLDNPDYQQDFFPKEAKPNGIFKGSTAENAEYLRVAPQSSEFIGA

Row | SMILES | IC50 (A549) | inhibition [1] | IC50 (NCI-H1975) | IC50 [2] | IC50 [3] | IC50 [4] | IC50 [5]
1 | COc1cc(F)c(NC(=O)c2ccnc(O)c2)cc1Nc1nccc(-c2cn(C)c3ccccc23)n1 | 11.7 µM | 10.6% | 5.92 µM |  |  |  | 
2 | COc1cc(N(C)CCN(C)C)c(NC(=O)c2ccncc2OC)cc1Nc1nccc(-c2cn(C)c3ccccc23)n1 | 2.69 µM | 28.5% | 1.01 µM | > 0.5 µM | > 0.5 µM | 0.1 µM | > 1 µM
3 | C=CC(=O)Nc1cc(Nc2nccc(-c3cn(C)c4ccccc34)n2)c(OC)cc1N(C)CCN(C)C [OSIMERTINIB] | 1.87 µM |  | […] |  |  |  | > 1 µM
4 | COc1ccc(C(=O)Nc2cc(Nc3nc(-c4cn(C)c5ccccc45)c4cccnc4n3)c(OC)cc2N(C)CCN(C)C)nc1 | 4.23 µM | 12.8% | 1.16 µM |  |  |  | 
5 | COc1cc(N(C)CCN(C)C)c(NC(=O)c2nccn2C)cc1Nc1nc(-c2cn(C)c3ccccc23)c2cccnc2n1 | 5.64 µM | 19.4% | 4.2 µM | > 0.5 µM | > 0.5 µM | 0.42 µM | > 1 µM
6 | COc1cc(N(C)CCN(C)C)c(NC(=O)c2ccncn2)cc1Nc1nc(-c2cn(C)c3ccccc23)c2cccnc2n1 | 4.52 µM | 22.3% | 1.09 µM | 0.36 µM | > 0.5 µM | > 0.5 µM | > 1 µM
7 | COc1cc(N(C)CCN(C)C)c(NC(=O)c2cnccn2)cc1Nc1nc(-c2cn(C)c3ccccc23)c2ccccc2n1 | 10.1 µM | -9.4% | 16.3 µM |  |  |  | 
8 | COc1cc(N(C)CCN(C)C)c(NC(=O)c2ccncc2)cc1Nc1nccc(-c2cn(C)c3ccccc23)n1 | 10.4 µM | 24% | 6.86 µM | > 0.5 µM | > 0.5 µM | 0.391 µM | > 1 µM
9 | COc1cc(N(C)CCN(C)C)c(NC(=O)c2ccncn2)cc1Nc1nccc(-c2cn(CCCO)c3ccccc23)n1 | 2.66 µM | 65.6% | 2.12 µM | 0.59 µM | 0.161 µM | 0.041 µM | > 1 µM
10 | COc1cc(N(C)CCN(C)C)c(NC(=O)c2ccncc2OC)cc1Nc1nccc(-c2cn(CCCO)c3ccccc23)n1 | 2.39 µM | 49.5% | 1.97 µM |  |  |  | 
11 | COc1cc(N(C)CCN(C)C)c(NC(=O)c2cccnc2)cc1Nc1nccc(-c2cn(C)c3ccccc23)n1 | 1.6 µM | 41.6% | 1.75 µM | > 0.5 µM | > 0.5 µM | 0.36 µM | > 1 µM
12 | COc1cc(F)c(NC(=O)c2ccncc2OC)cc1Nc1nccc(-c2cn(C)c3ccccc23)n1 | 3.43 µM | 2.2% | 4.12 µM |  |  |  | 
13 | COc1cc(F)c(NC(=O)c2ccncc2)cc1Nc1nccc(-c2cn(C)c3ccccc23)n1 | 4.2 µM | 15.5% | 4.37 µM |  |  |  | 
14 | COc1cc(F)c(NC(=O)c2ncccn2)cc1Nc1nccc(-c2cn(C)c3ccccc23)n1 | 8.4 µM | 9.6% | 13.5 µM |  |  |  | 
15 | COc1cc(N(C)CCN(C)C)c(NC(=O)c2ccnc(Cl)c2)cc1Nc1nccc(-c2cn(CCCO)c3ccccc23)n1 | 2.14 µM | 70.1% | 1.82 µM | 0.743 µM | 0.137 µM | 0.042 µM | > 1 µM
16 | COc1cc(N(C)CCN(C)C)c(NC(=O)c2ccnc(O)c2)cc1Nc1nccc(-c2cn(C)c3ccccc23)n1 | 11.2 µM | 38.1% | 12 µM | > 0.5 µM | > 0.5 µM | > 0.5 µM | > 1 µM

Further lines, results first:

Row | IC50 (A549) | inhibition [1] | IC50 (NCI-H1975) | IC50 [2] | IC50 [3] | IC50 [4] | IC50 [5] | SMILES
17 | 9 µM | 18.1% | 1.47 µM |  |  |  |  | COc1cc(N(C)C)c(NC(=O)c2ccncc2)cc1Nc1nccc(-c2cn(C)c3ccccc23)n1
18 | 3.56 µM | 24.7% | 3.12 µM |  |  |  |  | COc1cc(N(C)C)c(NC(=O)c2c[nH]cn2)cc1Nc1nccc(-c2cn(C)c3ccccc23)n1
19 | 8.64 µM | 7.4% | 5.4 µM |  |  |  |  | COc1cc(N(C)C)c(NC(=O)c2ncccn2)cc1Nc1nccc(-c2cn(C)c3ccccc23)n1
20 | 5.15 µM | 1.2% | 2.13 µM |  |  |  |  | COc1ccc(C(=O)Nc2cc(Nc3nccc(-c4cn(C)c5ccccc45)n3)c(OC)cc2N(C)C)nc1
21 | 2.55 µM |  | 3.32 µM |  |  |  | > 1 µM | COc1cc(N(C)CCN(C)C)c(NC(=O)c2nccn2C)cc1Nc1nccc(-c2cn(C)c3ccccc23)n1
22 | 5.14 µM | 7.7% | 10.6 µM |  |  |  |  | COc1cc(F)c(NC(=O)c2nccn2C)cc1Nc1nccc(-c2cn(C)c3ccccc23)n1
23 | 3.03 µM | 7.9% | 12.1 µM |  |  |  |  | COc1cc(N(C)C)c(NC(=O)c2ccncc2OC)cc1Nc1nccc(-c2cn(C)c3ccccc23)n1
24 | 2.49 µM | 9.7% | 24.8 µM |  |  |  |  | COc1cc(F)c(NC(=O)c2cnccn2)cc1Nc1nccc(-c2cn(C)c3ccccc23)n1
25 | 3.43 µM | 9.4% | 9.2 µM |  |  |  |  | COc1cc(N(C)C)c(NC(=O)c2ccnc(Cl)c2)cc1Nc1nccc(-c2cn(C)c3ccccc23)n1
26 | 4.33 µM | 38.2% | 1.22 µM | 0.224 µM | > 0.5 µM | 0.017 µM | > 1 µM | COc1cc(N(C)CCN(C)C)c(NC(=O)c2cnccn2)cc1Nc1nccc(-c2cn(C)c3ccccc23)n1
27 | 8.2 µM | 1.5% | 16.8 µM |  |  |  |  | COc1ccc(C(=O)Nc2cc(Nc3nccc(-c4cn(C)c5ccccc45)n3)c(OC)cc2F)nc1
28 | 2.49 µM | 38.2% | 0.65 µM | 0.146 µM | > 0.5 µM | 0.03 µM | > 1 µM | COc1cc(N(C)CCN(C)C)c(NC(=O)c2ncccn2)cc1Nc1nccc(-c2cn(C)c3ccccc23)n1
29 | 8.29 µM | 10.5% | 10.3 µM |  |  |  |  | COc1cc(N(C)C)c(NC(=O)c2ccccn2)cc1Nc1nccc(-c2cn(C)c3ccccc23)n1
30 | 7.98 µM | -1.4% | 16.5 µM |  |  |  |  | COc1cc(F)c(NC(=O)c2ccccn2)cc1Nc1nccc(-c2cn(C)c3ccccc23)n1
31 | 10.2 µM | 12.1% | 2.88 µM |  |  |  |  | COc1cc(N(C)C)c(NC(=O)c2nccn2C)cc1Nc1nccc(-c2cn(C)c3ccccc23)n1
32 | 6.89 µM | 9.6% | 4.33 µM |  |  |  |  | COc1cc(F)c(NC(=O)c2ccnc(Cl)c2)cc1Nc1nccc(-c2cn(C)c3ccccc23)n1
33 | 5.23 µM |  | 4.23 µM |  |  |  | > 1 µM | COc1ccc(C(=O)Nc2cc(Nc3nccc(-c4cn(C)c5ccccc45)n3)c(OC)cc2N(C)CCN(C)C)nc1
34 | 0.97 µM | 42.9% | 2.05 µM | > 0.5 µM | 0.42 µM | > 0.5 µM | > 1 µM | COc1cc(N(C)CCN(C)C)c(NC(=O)c2ccnc(Cl)c2)cc1Nc1nccc(-c2cn(C)c3ccccc23)n1
35 | 2.84 µM | -1.8% | 3.66 µM |  |  |  |  | COc1cc(N(C)C)c(NC(=O)c2ccnc(Cl)n2)cc1Nc1nccc(-c2cn(C)c3ccccc23)n1
36 | 5.16 µM | 8.8% | 1.25 µM |  |  |  |  | COc1cc(N(C)C)c(NC(=O)c2ccncn2)cc1Nc1nccc(-c2cn(C)c3ccccc23)n1
